Test results as given in PubChem BioAssay AID330 (DTP/NCI, 2004).
“And” between values parts separate entries of the source, which are not always exact repeats. Equal values may be shown once. Toxic doses and inconclusive results are not listed. The calls were made as follows: active = survival T/C of 150% or more; inactive = T/C below 125% in these data.

Test system: P388 leukemia ip, CD2F1 mice, survival T/C
Assay: NCI In Vivo Anticancer Drug Screen. Data for tumor model P388 Leukemia (intraperitoneal) in CD2F1 (CDF1) mice
Settings: endpoint: median survival time, higher = longer survival
How it was run: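 Mice carrying the transplanted tumor received test compound or vehicle. Survival was recorded in each group, and the value is the treated-group measurement divided by that of the vehicle-treated control group.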

[1] = dose: 50.0 mg/kg/injection, schedule: Q01DX009 (ip), vehicle: saline with Tween-80
[2] = dose: 100.0 mg/kg/injection, schedule: Q01DX009 (ip), vehicle: saline with Tween-80
[3] = dose: 30.0 mg/kg/injection, schedule: Q01DX005 (ip), vehicle: saline with Tween-80
[4] = dose: 60.0 mg/kg/injection, schedule: Q01DX005 (ip), vehicle: saline with Tween-80
[5] = dose: 120.0 mg/kg/injection, schedule: Q01DX005 (ip), vehicle: saline with Tween-80
[6] = dose: 50.0 mg/kg/injection, schedule: Q01DX005 (ip), vehicle: saline
[7] = dose: 100.0 mg/kg/injection, schedule: Q01DX005 (ip), vehicle: saline
[8] = dose: 50.0 mg/kg/injection, schedule: Q01DX005 (ip), vehicle: saline with Tween-80
[9] = dose: 100.0 mg/kg/injection, schedule: Q01DX005 (ip), vehicle: saline with Tween-80
[10] = dose: 240.0 mg/kg/injection, schedule: Q01DX005 (ip), vehicle: saline with Tween-80
[11] = dose: 200.0 mg/kg/injection, schedule: Q01DX005 (ip), vehicle: saline with Tween-80

Measured: T/C

CCCCCCCCCCCCCC1C=CCC1 (configuration not stated)
inactive: dose: 100.0 mg/kg/injection, schedule: Q01DX001 (ip), vehicle: saline 101 % of control | dose: 200.0 mg/kg/injection, schedule: Q01DX001 (ip), vehicle: saline 99 % of control | dose: 400.0 mg/kg/injection, schedule: Q01DX001 (ip), vehicle: saline 100 % of control

CC(O)(c1ccccc1)C(CCl)N1CCCCC1 (configuration not stated)
inactive: [1] 100 % of control | [2] 105 % of control | dose: 200.0 mg/kg/injection, schedule: Q01DX009 (ip), vehicle: saline with Tween-80 105 % of control

CC(C)N(CC#CCO)CCO
inactive: dose: 60.0 mg/kg/injection, schedule: Q01DX005 (ip), vehicle: saline 99 % of control | dose: 120.0 mg/kg/injection, schedule: Q01DX005 (ip), vehicle: saline 100 % of control | dose: 240.0 mg/kg/injection, schedule: Q01DX005 (ip), vehicle: saline 99 % of control

O=C(NCc1ccccc1)Nc1cccc2c(NC(=O)NCc3ccccc3)cccc12
inactive: [3] 91 % of control | [4] 86 % of control and 89 % of control | [5] 86 % of control

CCN(CC)CCC(O)c1ccc(Cl)c2ccccc12 (configuration not stated)
inactive: [6] 106 % of control | [7] 101 % of control

CC1CCCCN1C (configuration not stated)
inactive: dose: 25.0 mg/kg/injection, schedule: Q01DX005 (ip), vehicle: saline with Tween-80 90 % of control | [8] 91 % of control | [9] 89 % of control

C=CC1CN2CCC1CC2C(O)c1ccnc2ccc(OC)cc12 (configuration not stated)
inactive: [8] 97 % of control | dose: 50.0 mg/kg/injection, schedule: Q04DX003 (ip), vehicle: alcohol 115 % of control | [9] 104 % of control | dose: 100.0 mg/kg/injection, schedule: Q04DX003 (ip), vehicle: alcohol 105 % of control | dose: 200.0 mg/kg/injection, schedule: Q04DX003 (ip), vehicle: alcohol 115 % of control

O=c1[nH]c2cc(Cl)ccc2nc1C1=C(O)c2ccccc2C1
inactive: [4] 89 % of control | [5] 89 % of control | [10] 110 % of control

CC(=O)NC1C(Nc2ccc(S(=O)(=O)Nc3cc(C)nc(C)n3)cc2)OC(CO)C(O)C1O (configuration not stated)
inactive: [6] 108 % of control | [7] 98 % of control | dose: 200.0 mg/kg/injection, schedule: Q01DX005 (ip), vehicle: saline 101 % of control

COc1ccc2c(NCCCCNc3c4ccccc4nc4cc(OC)ccc34)c3ccccc3nc2c1
inactive: dose: 0.62 mg/kg/injection, schedule: Q01DX009 (ip), vehicle: other 101 % of control | dose: 1.25 mg/kg/injection, schedule: Q01DX009 (ip), vehicle: other 102 % of control | dose: 2.5 mg/kg/injection, schedule: Q01DX009 (ip), vehicle: other 108 % of control | dose: 5.0 mg/kg/injection, schedule: Q01DX009 (ip), vehicle: other 101 % of control | dose: 10.0 mg/kg/injection, schedule: Q01DX009 (ip), vehicle: other 107 % of control | dose: 20.0 mg/kg/injection, schedule: Q01DX009 (ip), vehicle: other 110 % of control

N#C/C(=N\N=C(/C#N)c1ccc(Cl)cc1)c1ccc(Cl)cc1
inactive: [8] 97 % of control | [9] 94 % of control | [11] 88 % of control

COC(=O)[C@@]1(O)CC(OC)=CC1=O
inactive: dose: 5.0 mg/kg/injection, schedule: Q01DX005 (ip), vehicle: Klucel (hydroxypropylcellulose) (HPC) 93 % of control | dose: 10.0 mg/kg/injection, schedule: Q01DX005 (ip), vehicle: Klucel (hydroxypropylcellulose) (HPC) 95 % of control | dose: 20.0 mg/kg/injection, schedule: Q01DX005 (ip), vehicle: Klucel (hydroxypropylcellulose) (HPC) 100 % of control | dose: 40.0 mg/kg/injection, schedule: Q01DX005 (ip), vehicle: Klucel (hydroxypropylcellulose) (HPC) 93 % of control | dose: 80.0 mg/kg/injection, schedule: Q01DX005 (ip), vehicle: Klucel (hydroxypropylcellulose) (HPC) 98 % of control

CCN(CC)C(Cc1ccccc1)=NC(C)(C)C
inactive: [1] 94 % of control | [2] 88 % of control

CNC(=O)Oc1ccccc1OC(C)C
inactive: dose: 7.5 mg/kg/injection, schedule: Q01DX005 (ip), vehicle: Klucel (hydroxypropylcellulose) (HPC) 97 % of control | dose: 15.0 mg/kg/injection, schedule: Q01DX005 (ip), vehicle: Klucel (hydroxypropylcellulose) (HPC) 96 % of control

CN(N=O)C(=O)NCCNC(=O)C1OC(n2cnc3c(=O)[nH]cnc32)C(O)C1O (configuration not stated)
inactive: [9] 106 % of control | [11] 109 % of control | dose: 400.0 mg/kg/injection, schedule: Q01DX005 (ip), vehicle: saline with Tween-80 115 % of control

CC(=O)OCC1OC(S[As](C2CCCCC2)C2CCCCC2)C(OC(C)=O)C(OC(C)=O)C1OC(C)=O (configuration not stated)
inactive: dose: 25.0 mg/kg/injection, schedule: Q04DX003 (ip), vehicle: Klucel (hydroxypropylcellulose) (HPC) 109 % of control | dose: 50.0 mg/kg/injection, schedule: Q04DX003 (ip), vehicle: Klucel (hydroxypropylcellulose) (HPC) 116 % of control

O=S(=O)(F)c1ccc(C[P+](c2ccccc2)(c2ccccc2)c2ccccc2)cc1Cl
inactive: dose: 15.0 mg/kg/injection, schedule: Q01DX005 (ip), vehicle: saline with Tween-80 111 % of control | [3] 106 % of control | [4] 110 % of control and 86 % of control

O=S1(=O)CCCN1c1ccccn1
inactive: [4] 102 % of control | [5] 105 % of control | [10] 101 % of control

Cc1cccc(Nc2nc(C)nc3[nH]cc(C)c23)c1
inactive: dose: 50.0 mg/kg/injection, schedule: Q01DX005 (ip), vehicle: Klucel (hydroxypropylcellulose) (HPC) 92 % of control | dose: 100.0 mg/kg/injection, schedule: Q01DX005 (ip), vehicle: Klucel (hydroxypropylcellulose) (HPC) 90 % of control

CCOC(=O)[C@H]1CC[C@@H](C(=O)OCC)N1Sc1ccc([N+](=O)[O-])cc1[N+](=O)[O-]
inactive: [8] 102 % of control | [9] 102 % of control | [11] 102 % of control
